According to PubChem BioAssay AID248 (DTP/NCI, 2004):
Where “and” joins values, the source holds several entries; their conditions need not be identical. Equal values may be shown once. Toxic doses and inconclusive results are not listed. No stated cut-off is given here; in the data, active means T/C of 150% or more; inactive means T/C below 125%.

Tested on: L1210 leukemia ip in BDF1 mice, survival T/C
Assay: NCI In Vivo Anticancer Drug Screen. Data for tumor model L1210 Leukemia (intraperitoneal) in B6D2F1 (BDF1) mice
Settings: endpoint: mean survival time, higher = longer survival
Procedure, shortened: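 Transplantable tumor model; survival measured in treated vs vehicle control mice. Value = treated/control.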

[1] = dose: 100.0 mg/kg/injection, schedule: Q04DX002 (ip), vehicle: saline
[2] = dose: 200.0 mg/kg/injection, schedule: Q04DX002 (ip), vehicle: saline
[3] = dose: 400.0 mg/kg/injection, schedule: Q04DX002 (ip), vehicle: saline
[4] = dose: 100.0 mg/kg/injection, schedule: Q04DX002 (ip), vehicle: saline with Tween-80
[5] = dose: 200.0 mg/kg/injection, schedule: Q04DX002 (ip), vehicle: saline with Tween-80
[6] = dose: 400.0 mg/kg/injection, schedule: Q04DX002 (ip), vehicle: saline with Tween-80
[7] = dose: 100.0 mg/kg/injection, schedule: Q01DX001 (ip), vehicle: saline
[8] = dose: 200.0 mg/kg/injection, schedule: Q01DX001 (ip), vehicle: saline
[9] = dose: 100.0 mg/kg/injection, schedule: Q01DX009 (ip), vehicle: saline with Tween-80
[10] = dose: 200.0 mg/kg/injection, schedule: Q01DX009 (ip), vehicle: saline with Tween-80
[11] = dose: 400.0 mg/kg/injection, schedule: Q01DX009 (ip), vehicle: saline with Tween-80

Measured: T/C

CCOc1ccc(Nc2ncnc3nc[nH]c23)cc1CN(CCCl)CCCl
inactive: dose: 1.2 mg/kg/injection, schedule: Q01DX Z (ip), vehicle: carboxymethylcellulose (CMC) 98 % of control | dose: 1.3 mg/kg/injection, schedule: Q01DX Z (ip), vehicle: carboxymethylcellulose (CMC) 114 % of control | dose: 1.56 mg/kg/injection, schedule: Q04DX003 (ip), vehicle: saline 113 % of control | dose: 1.9 mg/kg/injection, schedule: Q01DX Z (ip), vehicle: carboxymethylcellulose (CMC) 117 % of control | dose: 2.5 mg/kg/injection, schedule: Q01DX Z (ip), vehicle: carboxymethylcellulose (CMC) 103 % of control | dose: 3.3 mg/kg/injection, schedule: Q04DX003 (ip), vehicle: saline 111 % of control | dose: 4.2 mg/kg/injection, schedule: Q01DX Z (ip), vehicle: carboxymethylcellulose (CMC) 116 % of control | dose: 5.0 mg/kg/injection, schedule: Q01DX001 (ip), vehicle: carboxymethylcellulose (CMC) 104 % of control | dose: 5.0 mg/kg/injection, schedule: Q01DX Z (ip), vehicle: carboxymethylcellulose (CMC) 116 % of control | dose: 5.0 mg/kg/injection, schedule: Q04DX003 (ip), vehicle: saline 122 % of control | dose: 7.5 mg/kg/injection, schedule: Q04DX003 (ip), vehicle: saline 121 % of control | dose: 10.0 mg/kg/injection, schedule: Q01DX001 (ip), vehicle: carboxymethylcellulose (CMC) 102 % of control | dose: 10.0 mg/kg/injection, schedule: Q01DX Z (ip), vehicle: carboxymethylcellulose (CMC) 110 % of control | dose: 20.0 mg/kg/injection, schedule: Q01DX001 (ip), vehicle: carboxymethylcellulose (CMC) 109 % of control | dose: 40.0 mg/kg/injection, schedule: Q01DX001 (ip), vehicle: carboxymethylcellulose (CMC) 102 % of control

COCCN(N=O)C(=O)NC1CCCCC1
inactive: dose: 700.0 mg/kg/injection, schedule: Q01DX001 (ip), vehicle: carboxymethylcellulose (CMC) 124 % of control | dose: 800.0 mg/kg/injection, schedule: Q01DX001 (ip), vehicle: carboxymethylcellulose (CMC) 124 % of control | dose: 1000.0 mg/kg/injection, schedule: Q01DX001 (ip), vehicle: carboxymethylcellulose (CMC) 117 % of control

Cc1ccc2nc(-c3ccc(N)cc3)sc2c1S(=O)(=O)O
inactive: dose: 100.0 mg/kg/injection, schedule: Q01DX009 (ip), vehicle: saline 100 % of control | [1] 92 % of control | dose: 200.0 mg/kg/injection, schedule: Q01DX009 (ip), vehicle: saline 96 % of control | [2] 105 % of control | dose: 400.0 mg/kg/injection, schedule: Q01DX009 (ip), vehicle: saline 110 % of control | [3] 99 % of control

O=[N+]([O-])c1ccc(O)c(/C=N/N2CCCCC2)c1
inactive: [4] 94 % of control | [5] 97 % of control | [6] 108 % of control

CCCCCCCCCCCCCCCC(=O)Nc1cccc(C)c1C
inactive: [4] 93 % of control | [5] 86 % of control

Nc1ccccc1Sc1ccc(Br)cc1[N+](=O)[O-]
inactive: dose: 37.5 mg/kg/injection, schedule: Q04DX003 (ip), vehicle: saline 98 % of control | dose: 75.0 mg/kg/injection, schedule: Q04DX003 (ip), vehicle: saline 102 % of control | dose: 150.0 mg/kg/injection, schedule: Q04DX003 (ip), vehicle: saline 93 % of control

CCN(CC)C(=O)COc1ccc(Cl)cc1
inactive: [1] 114 % of control | [2] 107 % of control | [3] 118 % of control

S=c1nccc[nH]1
inactive: dose: 25.0 mg/kg/injection, schedule: Q01DX009 (ip), vehicle: saline with Tween-80 103 % of control | dose: 25.0 mg/kg/injection, schedule: Q04DX002 (ip), vehicle: saline with Tween-80 93 % of control | dose: 50.0 mg/kg/injection, schedule: Q01DX009 (ip), vehicle: saline with Tween-80 105 % of control | dose: 50.0 mg/kg/injection, schedule: Q04DX002 (ip), vehicle: saline with Tween-80 107 % of control | [4] 96 % of control

C(/C=C/C=C/Nc1ccc(N=Nc2ccccc2)cc1)=Nc1ccc(N=Nc2ccccc2)cc1
inactive: dose: 100.0 mg/kg/injection, schedule: Q01DX009 (ip), vehicle: saline sonified 94 % of control | dose: 100.0 mg/kg/injection, schedule: Q04DX003 (ip), vehicle: saline sonified 94 % of control | dose: 200.0 mg/kg/injection, schedule: Q01DX009 (ip), vehicle: saline sonified 94 % of control | dose: 200.0 mg/kg/injection, schedule: Q04DX003 (ip), vehicle: saline sonified 93 % of control | dose: 400.0 mg/kg/injection, schedule: Q04DX003 (ip), vehicle: saline sonified 91 % of control

Cc1ccc(OCCOC(=O)COc2ccc(Cl)cc2Cl)cc1C
inactive: dose: 100.0 mg/kg/injection, schedule: Q04DX002 (ip), vehicle: Klucel (hydroxypropylcellulose) (HPC) 102 % of control | dose: 200.0 mg/kg/injection, schedule: Q04DX002 (ip), vehicle: Klucel (hydroxypropylcellulose) (HPC) 97 % of control | dose: 400.0 mg/kg/injection, schedule: Q04DX002 (ip), vehicle: Klucel (hydroxypropylcellulose) (HPC) 102 % of control

O=C(Cc1ccccc1)C(Cl)c1ccccc1 (stereo unspecified)
inactive: [7] 94 % of control | [8] 105 % of control

CC(=O)C1(C)C(=O)N(c2ccc(C)cc2)C(=O)N1c1ccc(C)cc1 (stereo unspecified)
inactive: [7] 104 % of control | [8] 102 % of control | dose: 400.0 mg/kg/injection, schedule: Q01DX001 (ip), vehicle: saline 102 % of control

CCOC(=O)CC(C(=O)OCC)c1nc2ccccc2[nH]c1=O (stereo unspecified)
inactive: dose: 50.0 mg/kg/injection, schedule: Q01DX009 (ip), vehicle: Klucel (hydroxypropylcellulose) (HPC) 93 % of control and 113 % of control | dose: 100.0 mg/kg/injection, schedule: Q01DX009 (ip), vehicle: Klucel (hydroxypropylcellulose) (HPC) 101 % of control and 90 % of control | dose: 200.0 mg/kg/injection, schedule: Q01DX009 (ip), vehicle: Klucel (hydroxypropylcellulose) (HPC) 93 % of control and 103 % of control

CN1CSCC1C(=O)O (stereo unspecified)
inactive: dose: 100.0 mg/kg/injection, schedule: Q04DX003 (ip), vehicle: saline 94 % of control | dose: 200.0 mg/kg/injection, schedule: Q04DX003 (ip), vehicle: saline 96 % of control

O=Cc1cc(O)c(O)c(O)c1
inactive: dose: 50.0 mg/kg/injection, schedule: Q01DX001 (ip), vehicle: other 103 % of control | dose: 100.0 mg/kg/injection, schedule: Q01DX001 (ip), vehicle: other 101 % of control | dose: 200.0 mg/kg/injection, schedule: Q01DX001 (ip), vehicle: other 101 % of control | dose: 400.0 mg/kg/injection, schedule: Q01DX001 (ip), vehicle: other 104 % of control

CCOC(=O)c1cc(C=O)nc2c(Cl)cc(Cl)cc12
inactive: [9] 89 % of control | [10] 92 % of control

O=C(NC(=S)Nc1ccc([N+](=O)[O-])cc1Br)c1ccc(Cl)cc1Cl
inactive: [9] 89 % of control and 90 % of control | [4] 87 % of control and 90 % of control | [10] 93 % of control and 90 % of control | [5] 86 % of control and 92 % of control | [11] 93 % of control and 95 % of control | [6] 104 % of control and 92 % of control

Cc1ccc(S(=O)(=O)N(C)c2ccc(N)cc2)cc1
inactive: dose: 100.0 mg/kg/injection, schedule: Q01DX001 (ip), vehicle: carboxymethylcellulose (CMC) 102 % of control | dose: 200.0 mg/kg/injection, schedule: Q01DX001 (ip), vehicle: carboxymethylcellulose (CMC) 96 % of control | dose: 400.0 mg/kg/injection, schedule: Q01DX001 (ip), vehicle: carboxymethylcellulose (CMC) 91 % of control

O=S(=O)(Nc1ccc(NS(=O)(=O)c2ccccc2)c(S(=O)(=O)c2ccccc2)c1)c1ccccc1
inactive: [9] 100 % of control | [10] 98 % of control | [11] 94 % of control
